Reference: PubChem BioAssay AID1963845 (Molecular Pharmacology Branch, DTP, NCI, 2024)
Values joined by “and” are separate entries in the source; they are usually repeats but may differ in a detail not shown here. Equal values may be shown once.

System: 429239-143-T-J1-PDC complex spheroid viability
Experiment: Anticancer human tumor 429239-143-T-J1-PDC patient-derived small cell lung carcinoma cell line growth inhibition [POLQ]
Conditions: for viability, T/C: stronger effect = lower value
Experimental: Multicellular complex tumor spheroid response to Polymerase (POL) inhibitors (novobiocin, ART-558, RP6685) in combination with a variety of drugs and investigational agents in selected tumor cell lines
The POL inhibitors (novobiocin, ART-558, and RP6685) were evaluated both individually and in combination with standard of care and investigational anticancer small molecules within a complex spheroid model of solid tumors. . Complex spheroids include a stromal component modeled by human endothelial cells (HUVEC) and fibroblasts modeled by human mesenchymal stem cells (MSCs). The concentration ranges selected for each drug and investigational agent were based upon clinically achievable concentrations if the clinical Cmax of the agent was known.
Compounds. The drugs and investigational agents: novobiocin (NSC847541), ART-558 (NSC835418), RP-6685 (NSC848927), peposertib (NSC802822), ceralasertib (NSC780249), elimusertib (NSC800525), camonsertib (NSC841442), AZD-1390 (NSC803789), olaparib (NSC753686), talazoparib (NSC767125), rucaparib (NSC756644), sotorasib (NSC818433), MRTX-1133 (NSC836407), SN-38 (NSC673596), topotecan (NSC609699), epotoside (NSC141540), doxorubicin (NSC123127), gemcitabine (NSC613327), 5-fluorouracil (NSC19893), paclitaxel (NSC125973), vemurafenib (NSC761431), MSA-2 (NSC828583), SN-011 (NSC837082), adavosertib (NSC754352), prexasertib (NSC758257), carboplatin (NSC241240) and oxaliplatin (NSC266046), were obtained from the National Cancer Institute (NCI) Developmental Therapeutics Program Chemical Repository (21). The FDA-approved anticancer drug set is available from the Developmental Therapeutics Program at https://dtp.cancer.gov/organization/dscb/obtaining/. […] The stock solutions were prepared in dimethyl sulfoxide (DMSO, Sigma-Aldrich, St. Louis, MO, cat. D2650), except for the platinum compounds which were prepared in saline (Quality Biological, Gaithersburg, MD, cat. 114-055-101), at 800-fold the tested concentration and stored at -70 degrees C prior to their use. All drugs and investigational agents were tested over a range starting from a high concentration at or near the clinical Cmax and decreasing in half-log increments. If the clinical Cmax for an agent had not been determined, the highest concentration tested was 10 microM, except for SN-38, which was tested at a high concentration of 1 microM.
Cell Culture. All cells were maintained in an incubator at 37 degrees C and 5% CO2 with 95% humidity. The PDC lines were cultured according to standard operating procedures established by the NCI PDMR (https://pdmr.cancer.gov). Table 3 of the manuscript, lists the cell lines along with the number of the three cell types plated to form the mct-spheroids and media for tumor cell growth. After thawing, all PDC lines, except 997537-175-T-J1-PDC and 415267-285-R-J2-PDC, were cultured in Matrigel-coated flasks prepared with a working solution of 1X Ham's F-12 nutrient mix, without supplementation (Thermo Fisher Scientific, cat. 11765054), 100 U/mL penicillin-streptomycin (Thermo Fisher Scientific, cat. 15140122), and 2.5% Matrigel (Corning Inc., Corning, NY, cat. 354248) for the first three passages. The two PDC lines 997537-175-T-J1-PDC and 415267-285-R-J2-PDC were cultured on uncoated flasks. The 857933-349-R-J2-PDC line was cultured in 6C/Colon 1B media containing advanced DMEM/F-12 (Thermo Fisher Scientific, cat. 12634028), 10 mM HEPES (Thermo Fisher Scientific, cat. 15630080), 1X GlutaMAX supplement (Thermo Fisher Scientific, cat. 35050061), 0.1 mg/mL primocin (InvivoGen, San Diego, CA, cat. ant-pm-2), 10% defined fetal bovine serum, heat inactivated (HyClone Laboratories Inc., Logan, UT, cat. SH30070.03HI), 50% L-WRN conditioned media (ATCC, cat. CRL-3276), 1.25 mM N-Acetyl-L-cysteine (Sigma-Aldrich, cat. A9165), 10 mM nicotinamide (Sigma-Aldrich, cat. N0636), 1X B-27 supplement (Thermo Fisher Scientific, cat. 17504044), 1X N-2 supplement (Thermo Fisher Scientific, cat. […]

[1] = curve of first compound, second compound 0.0316 µM
[2] = curve of first compound, second compound 0.1 µM
[3] = curve of first compound, second compound 0.316 µM
[4] = curve of first compound, second compound 1 µM
[5] = curve of first compound, second compound 3.16 µM
[6] = curve of first compound, second compound 10 µM
[7] = second compound 0.0316 µM, first compound 0.0316 µM
[8] = second compound 0.0316 µM, first compound 0.1 µM
[9] = second compound 0.0316 µM, first compound 0.316 µM
[10] = second compound 0.0316 µM, first compound 1 µM
[11] = second compound 0.0316 µM, first compound 3.16 µM
[12] = second compound 0.0316 µM, first compound 10 µM
[13] = second compound 0.1 µM, first compound 0.0316 µM
[14] = second compound 0.1 µM, first compound 0.1 µM
[15] = second compound 0.1 µM, first compound 0.316 µM
[16] = second compound 0.1 µM, first compound 1 µM
[17] = second compound 0.1 µM, first compound 3.16 µM
[18] = second compound 0.1 µM, first compound 10 µM
[19] = second compound 0.316 µM, first compound 0.0316 µM
[20] = second compound 0.316 µM, first compound 0.1 µM
[21] = second compound 0.316 µM, first compound 0.316 µM
[22] = second compound 0.316 µM, first compound 1 µM
[23] = second compound 0.316 µM, first compound 3.16 µM
[24] = second compound 0.316 µM, first compound 10 µM
[25] = second compound 1 µM, first compound 0.0316 µM
[26] = second compound 1 µM, first compound 0.1 µM
[27] = second compound 1 µM, first compound 0.316 µM
[28] = second compound 1 µM, first compound 1 µM
[29] = second compound 1 µM, first compound 3.16 µM
[30] = second compound 1 µM, first compound 10 µM
[31] = second compound 3.16 µM, first compound 0.0316 µM
[32] = second compound 3.16 µM, first compound 0.1 µM
[33] = second compound 3.16 µM, first compound 0.316 µM
[34] = second compound 3.16 µM, first compound 1 µM
[35] = second compound 3.16 µM, first compound 3.16 µM
[36] = second compound 3.16 µM, first compound 10 µM
[37] = second compound 10 µM, first compound 0.0316 µM
[38] = second compound 10 µM, first compound 0.1 µM
[39] = second compound 10 µM, first compound 0.316 µM
[40] = second compound 10 µM, first compound 1 µM
[41] = second compound 10 µM, first compound 3.16 µM
[42] = second compound 10 µM, first compound 10 µM
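Also: luminescence signal used as surrogate measure of viable cells; spheroids exposed to compounds for seven days before readout.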
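For viability, T/C in this document: 100% = DMSO vehicle control viability as luminescence relative to vehicle.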

Nc1ccn(C2OC(CO)C(O)C2(F)F)c(=O)n1 (stereo not given) + Cc1cccc(N(C)C(=O)C2C(O)CCN2c2nc(C)cc(C(F)(F)F)c2C#N)c1
IC50 [1]: < 31.6 nM | IC50 [2]: < 31.6 nM | IC50 [3]: < 31.6 nM | IC50 [4]: < 31.6 nM | IC50 [5]: < 31.6 nM | IC50 [6]: < 31.6 nM | viability, T/C [7]: 19.2% | viability, T/C [8]: 20.4% | viability, T/C [9]: 17.1% | viability, T/C [10]: 18% | viability, T/C [11]: 18.3% | viability, T/C [12]: 17.3% | viability, T/C [13]: 20.3% | viability, T/C [14]: 20% | viability, T/C [15]: 15.1% | viability, T/C [16]: 20.4% | viability, T/C [17]: 18% | viability, T/C [18]: 16.5% | viability, T/C [19]: 18.5% | viability, T/C [20]: 16.1% | viability, T/C [21]: 18.6% | viability, T/C [22]: 20.8% | viability, T/C [23]: 19.3% | viability, T/C [24]: 17.1% | viability, T/C [25]: 21.8% | viability, T/C [26]: 16.5% | viability, T/C [27]: 18.2% | viability, T/C [28]: 16.6% | viability, T/C [29]: 17.2% | viability, T/C [30]: 17.5% | viability, T/C [31]: 25.2% | viability, T/C [32]: 17.2% | viability, T/C [33]: 21.9% | viability, T/C [34]: 18.5% | viability, T/C [35]: 15.5% | viability, T/C [36]: 18.3% | viability, T/C [37]: 24.9% | viability, T/C [38]: 15.6% | viability, T/C [39]: 20.8% | viability, T/C [40]: 17.9% | viability, T/C [41]: 20.2% | viability, T/C [42]: 19.4%

CNCc1ccc(-c2[nH]c3cc(F)cc4c3c2CCNC4=O)cc1 + Cc1cccc(N(C)C(=O)C2C(O)CCN2c2nc(C)cc(C(F)(F)F)c2C#N)c1
IC50 [1]: 3090 nM | IC50 [2]: 2600 nM | IC50 [3]: 2210 nM | IC50 [4]: 2220 nM | IC50 [5]: 2450 nM | IC50 [6]: 3240 nM | viability, T/C [7]: 113% | viability, T/C [8]: 83.8% | viability, T/C [9]: 85.1% | viability, T/C [10]: 75% | viability, T/C [11]: 51% | viability, T/C [12]: 21.1% | viability, T/C [13]: 90.9% | viability, T/C [14]: 92.7% | viability, T/C [15]: 79.4% | viability, T/C [16]: 66.2% | viability, T/C [17]: 47.5% | viability, T/C [18]: 19.7% | viability, T/C [19]: 97.8% | viability, T/C [20]: 94.7% | viability, T/C [21]: 75.8% | viability, T/C [22]: 70.7% | viability, T/C [23]: 40% | viability, T/C [24]: 22.7% | viability, T/C [25]: 86.7% | viability, T/C [26]: 82.3% | viability, T/C [27]: 72.3% | viability, T/C [28]: 66.2% | viability, T/C [29]: 42.4% | viability, T/C [30]: 24.4% | viability, T/C [31]: 91.3% | viability, T/C [32]: 84.9% | viability, T/C [33]: 95.5% | viability, T/C [34]: 62.9% | viability, T/C [35]: 47.8% | viability, T/C [36]: 22% | viability, T/C [37]: 80.3% | viability, T/C [38]: 91.4% | viability, T/C [39]: 83.8% | viability, T/C [40]: 61.8% | viability, T/C [41]: 54.2% | viability, T/C [42]: 23%

COc1cccc2c1C(=O)c1c(O)c3c(c(O)c1C2=O)CC(O)(C(=O)CO)CC3OC1CC(N)C(O)C(C)O1 (stereo not given)
viability, T/C (compound 0.0316 µM): 64.3% and 87.3% and 71.1% | viability, T/C (compound 0.1 µM): 12.8% and 42.3% and 14.2% | viability, T/C (compound 0.316 µM): 11.6% and 7.66% and 13.1% | viability, T/C (compound 1 µM): 0.3% and 0.77% and 0.76% | viability, T/C (compound 3.16 µM): 0.21% and 0.16% and 0.18% | viability, T/C (compound 10 µM): 0.24% and 0.16% and 0.14% | IC50 (curve of compound): 44.1 nM and 82.1 nM and 49.7 nM

C=CCn1c(=O)c2cnc(Nc3ccc(N4CCN(C)CC4)cc3)nc2n1-c1cccc(C(C)(C)O)n1
viability, T/C (compound 0.00316 µM): 99.5% and 101% and 95.1% | viability, T/C (compound 0.01 µM): 103% and 107% and 104% | viability, T/C (compound 0.0316 µM): 89.4% and 120% and 103% | viability, T/C (compound 0.1 µM): 82.4% and 97.7% and 98.2% | viability, T/C (compound 0.316 µM): 91.7% and 94% and 88.9% | viability, T/C (compound 1 µM): 17.4% and 20% and 18.9% | IC50 (curve of compound): 603 nM and 621 nM and 600 nM

COc1cc2cc(C(=O)CCC(=O)O)sc2cc1OC
viability, T/C (compound 0.0316 µM): 92.3% and 91.8% and 112% | viability, T/C (compound 0.1 µM): 105% and 102% and 92.5% | viability, T/C (compound 0.316 µM): 94.3% and 97.6% and 97.8% | viability, T/C (compound 1 µM): 108% and 109% and 97.7% | viability, T/C (compound 3.16 µM): 108% and 107% and 97.8% | viability, T/C (compound 10 µM): 97.3% and 104% and 87.3% | IC50 (curve of compound): > 10000 nM
